How the values were obtained:
soil fungal community = experiment: Plant associated soil microbiome: fungal community by ITS amplicon sequencing; type: in vivo, tomato plants
Text: Differential abundance of fungal taxa after 97 days in treated soil, as detected by PCR amplification and successive high-throughput sequencing of fungal taxonomical marker genes (the small-subunit ribosomal RNA gene (16S) and the ribosomal internal transcribed spacers (ITS) respectively) on plant-associated soil samples.
(§1) To detect microbial community modifications in the soil microbiome associated with the cyclobutrifluram treatment against root knot nematodes, PCR amplification and successive high-throughput sequencing of bacterial and fungal taxonomical marker genes (the small-subunit ribosomal RNA gene (16S) and the ribosomal internal transcribed spacers (ITS) respectively) were performed on plant-associated soil samples.
Comparison of the fungal community of Control and RKN-Cyclobutrifluram plant-associated 5 soil samples highlighted a microbiome shift mainly characterised by the reduction of the plant-pathogen Fusarium, an ubiquitous pathogenic fungus that constitutes an abundant taxon in control soil. Fusarium relative abundance results reduced from 17.8% in control samples to 7.5% after cyclobutrifluram treatment. Table 1b reports fungal genera detected by ITS gene amplicon sequencing with taxonomy assignment at genus level; relative abundance in Control and Cyclobutrifluram treated samples statistically significative (Deseq2, p=0.1), the relative abundance variation.

[1] = test system: beneficial bacterial species; experiment: Potato field trial: beneficial bacteria in soil (16S sequencing, differential abundance); type: in vivo, potato (Solanum tuberculosum L.)
Experimental: (§2) In this experiment, assuming that biodiversity can be measured by the taxonomic richness and abundance of each taxon, the differences between treatments are determined and their effect on populations and beneficial species over time is verified. This leads to testing two hypotheses. Firstly, there is an impact of cyclobutrifluram applications on microbial diversity. Secondly, the use of cyclobutrifluram improves beneficial microbial diversity over time. These hypotheses were tested in two potato farms in the USA.
(§3) The experiment was carried out in two potato (Solanum tuberculosum L.) fields located in two test locations in Louisiana, USA, described as locations A and B in Table 2. In each experimental field, three products were tested in an area of 10 m^2 (Table 3) and three replicates per product were established by complete block randomized. To evaluate the effects on the microbiome a “Check” plot (untreated) was established. In addition, fluopyram was employed as a comparative example. Fluopyram is a widely used fungicide and nematicide, and represents the industry standard herein.
(§4) To analyse the microbial biodiversity, three soil samples were taken per treatment and each sample consisted of soil collected from three different points within the plots. In this way, the effect of soil variability was minimized, since there were nine samples per treatment. […]
as §1, with “As set out above, to” for “To”, “treatment,” for “treatment against root knot nematodes,”, “samples. An exploratory data analysis was conducted to describe the microbial biodiversity and the behaviour of the percentage of the abundance of species under the evaluated factors. […]” for “samples.”

[2] = test system: Trichoderma brevicompactum; experiment: Potato field trial: beneficial fungi in soil (ITS sequencing, differential abundance); type: in vivo, potato (Solanum tuberculosum L.); conditions: location B; 200 and 250 gai/ha
Experimental: as §2
The experiment was carried out in two potato (Solanum tuberculosum L.) fields located in two test locations in Louisiana, USA, described as locations A and B in Table 2. […]
as §1, with “As set out above, to” for “To”, “treatment,” for “treatment against root knot nematodes,”, “samples. An exploratory data analysis was conducted to describe the microbial biodiversity and the behaviour of the percentage of the abundance of species under the evaluated factors. […]” for “samples.”

[3] = test system: bacteria (16S) and fungi (ITS) communities; experiment: Potato field trial: soil microbiome community and biodiversity; type: in vivo, potato (Solanum tuberculosum L.); conditions: locations A and B, T0-T3
Experimental: as §2, §3, §4
as §1, with “As set out above, to” for “To”, “treatment,” for “treatment against root knot nematodes,”, “samples. An exploratory data analysis was conducted to describe the microbial biodiversity and the behaviour of the percentage of the abundance of species under the evaluated factors. […]” for “samples.”

[4] = Cyclobutrifluram treated plant-associated soil, RKN

SMILES: O=C(N[C@@H]1CC[C@@H]1c1ccc(Cl)cc1Cl)c1cccnc1C(F)(F)F (racemic) [Cyclobutrifluram, cyclobutrifluram]
- Relative abundance, Acremonium (soil fungal community; [4]): 0.214%
- Relative abundance, Arthrinium (soil fungal community; [4]): 0.398%
- Relative abundance, Candida (soil fungal community; [4]): 0.839%
- Relative abundance, Chrysosporium (soil fungal community; [4]): 17.327%
- Relative abundance, Cladosporium (soil fungal community; [4]): 3.983%
- Relative abundance, Conostachys (soil fungal community; [4]): 0.797%
- Relative abundance, Eleutherascus (soil fungal community; [4]): 0.217%
- Relative abundance, Endoconidiophora (soil fungal community; [4]): 5.102%
- Relative abundance, Fusarium (soil fungal community; [4]): 7.544%
- Relative abundance, Humicola (soil fungal community; [4]): 0.000%
- Relative abundance, Lectera (soil fungal community; [4]): 1.767%
- Relative abundance, Monocillium (soil fungal community; [4]): 0.083%
- Relative abundance, Mortierella (soil fungal community; [4]): 2.111%
- Relative abundance, Mycosphaerella (soil fungal community; [4]): 1.672%
- Relative abundance, Oidiodendron (soil fungal community; [4]): 0.292%
- Relative abundance, Paraphoma (soil fungal community; [4]): 0.043%
- Relative abundance, Phialemonium (soil fungal community; [4]): 0.357%
- Relative abundance, Pseudaleuria (soil fungal community; [4]): 1.936%
- Relative abundance, Pseudogymnoascus (soil fungal community; [4]): 0.870%
- Relative abundance, Saitozyma (soil fungal community; [4]): 0.907%
- Relative abundance, Schwanniomyces (soil fungal community; [4]): 0.017%
- Relative abundance, Sebacina (soil fungal community; [4]): 0.077%
- Relative abundance, Solicoccozyma (soil fungal community; [4]): 0.407%
- Relative abundance, Tetracladium (soil fungal community; [4]): 0.318%
- Relative abundance, Verticillium (soil fungal community; [4]): 0.571%
- Relative abundance, Fusarium (soil fungal community; Cyclobutrifluram treated plant-associated soil, RKN, listed as cyclobutrifluram): 7.5%
- relative abundance variation vs Control, Acremonium (soil fungal community; Deseq2, p=0.1): +0.056%
- relative abundance variation vs Control, Arthrinium (soil fungal community; Deseq2, p=0.1): +0.293%
- relative abundance variation vs Control, Candida (soil fungal community; Deseq2, p=0.1): −0.269%
- relative abundance variation vs Control, Chrysosporium (soil fungal community; Deseq2, p=0.1): +2.918%
- relative abundance variation vs Control, Cladosporium (soil fungal community; Deseq2, p=0.1): −1.949%
- relative abundance variation vs Control, Conostachys (soil fungal community; Deseq2, p=0.1): +0.132%
- relative abundance variation vs Control, Eleutherascus (soil fungal community; Deseq2, p=0.1): +0.108%
- relative abundance variation vs Control, Endoconidiophora (soil fungal community; Deseq2, p=0.1): +2.581%
- relative abundance variation vs Control, Fusarium (soil fungal community; Deseq2, p=0.1): −10.274%
- relative abundance variation vs Control, Humicola (soil fungal community; Deseq2, p=0.1): −0.112%
- relative abundance variation vs Control, Lectera (soil fungal community; Deseq2, p=0.1): +1.617%
- relative abundance variation vs Control, Monocillium (soil fungal community; Deseq2, p=0.1): +0.070%
- relative abundance variation vs Control, Mortierella (soil fungal community; Deseq2, p=0.1): −0.412%
- relative abundance variation vs Control, Mycosphaerella (soil fungal community; Deseq2, p=0.1): −0.541%
- relative abundance variation vs Control, Oidiodendron (soil fungal community; Deseq2, p=0.1): +0.054%
- relative abundance variation vs Control, Paraphoma (soil fungal community; Deseq2, p=0.1): −0.023%
- relative abundance variation vs Control, Phialemonium (soil fungal community; Deseq2, p=0.1): −0.044%
- relative abundance variation vs Control, Pseudaleuria (soil fungal community; Deseq2, p=0.1): +1.181%
- relative abundance variation vs Control, Pseudogymnoascus (soil fungal community; Deseq2, p=0.1): +0.550%
- relative abundance variation vs Control, Saitozyma (soil fungal community; Deseq2, p=0.1): −0.038%
- relative abundance variation vs Control, Schwanniomyces (soil fungal community; Deseq2, p=0.1): −0.005%
- relative abundance variation vs Control, Sebacina (soil fungal community; Deseq2, p=0.1): −0.027%
- relative abundance variation vs Control, Solicoccozyma (soil fungal community; Deseq2, p=0.1): +0.082%
- relative abundance variation vs Control, Tetracladium (soil fungal community; Deseq2, p=0.1): +0.088%
- relative abundance variation vs Control, Verticillium (soil fungal community; Deseq2, p=0.1): +0.156%
- effect on soil microbiome diversity (fungal taxa, FIG. 1) (soil fungal community; apart from inhibiting Fusarium): preserves soil microbiome diversity
- relative abundance of the plant-pathogen Fusarium (in words) (soil fungal community; soil of tomato plants in presence of RKN infestation, medium-long term): substantially reduced
- abundance of Bacillus halmapalus and B. cereus ([1]; T2 (60 days after treatment)): increased significantly
- Sphingomonas species (S. sediminicola, S. japsi and S. daechungensis) abundance ([1]; location A in T3 (120 days after application), location B in T2 (60 days after application)): tend to increase significantly
- Pseudomonas putida abundance ([1]; location A, 200 and 250 gai/ha): significant increase
- Trichoderma brevicompactum relative abundance [2]: significant enhancement
- changes into the soil microbiome community [3]: did not induce negative changes

Reference: patent publication US20260191196A1, “COMPOSITIONS AND METHODS FOR IMPROVING SOIL MICROBIAL POPULATIONS” (SYNGENTA CROP PROTECTION AG, priority 2022, published 2026)
